# From ChEMBL document CHEMBL6120934, “Isolation and Characterization of Insecticidal Cyclotides from Viola communis” (J Nat Prod, 2025)
# Bridge positions count the residues as written; N and C are the ends. Peptide text beside a SMILES is read from it.
# Assay: Cytotoxicity against Spodoptera frugiperda Sf9 cells assessed as inhibition of cell viability incubated for 24 hrs by resazurin assay
# Assay type: toxicity, cell-based
row,Compound,CC50 at 24 h
1,CC(C)C[C@@H]1NC(=O)CNC(=O)[C@H](CC(N)=O)NC(=O)[C@H](CCCNC(=N)N)NC(=O)[C@H]([C@@H](C)O)NC(=O)[C@@H]2CSSC[C@@H]3NC(=O)[C@H]([C@@H](C)O)NC(=O)CNC(=O)CNC(=O)[C@H](C(C)C)NC(=O)[C@@H]4CSSC[C@H](NC(=O)[C@H]([C@@H](C)O)NC(=O)[C@H](CSSC[C@H](NC(=O)[C@H](C(C)C)NC(=O)[C@@H]5CCCN5C1=O)C(=O)NCC(=O)N[C@@H](CCC(=O)O)C(=O)N[C@@H]([C@@H](C)O)C(=O)N4)NC(=O)CNC(=O)[C@@H]1CCCN1C(=O)[C@H]([C@@H](C)O)NC(=O)[C@H](CC(N)=O)NC3=O)C(=O)N[C@@H](CO)C(=O)N[C@@H](Cc1c[nH]c3ccccc13)C(=O)N1CCC[C@H]1C(=O)N[C@@H](C(C)C)C(=O)N2,2.31 µM
2,"CC[C@H](C)[C@@H]1NC(=O)[C@H](C(C)C)NC(=O)[C@H](CO)NC(=O)[C@H](CO)NC(=O)[C@H](Cc2ccccc2)NC(=O)[C@@H]2CSSC[C@@H](C(=O)N[C@@H](Cc3ccc(O)cc3)C(=O)N[C@@H](CC(N)=O)C(=O)O)NC(=O)[C@H](C(C)C)NC(=O)[C@H](CCCCN)NC(=O)[C@H](CC(N)=O)NC(=O)[C@H](CCCCN)NC(=O)[C@@H]3CSSC[C@H](NC(=O)[C@H](CO)NC(=O)[C@H](CCC(=O)O)NC(=O)CNC(=O)[C@@H](NC(=O)[C@@H]4CCCN4C(=O)[C@@H](NC(=O)[C@H](C)NC(=O)[C@H](C)N)C(C)C)CSSC[C@H](NC(=O)CNC1=O)C(=O)N[C@@H](CO)C(=O)N3)C(=O)N[C@@H](C(C)C)C(=O)N[C@@H](Cc1c[nH]c3ccccc13)C(=O)N[C@@H]([C@@H](C)CC)C(=O)N1CCC[C@H]1C(=O)N2 (H-AAVPCGESCVWIPCFSSVIGCSCKNKVCYN-OH; disulfide 5-21, 9-23, 14-28)",0.16 µM
3,"CC(C)[C@H](NC(=O)[C@@H]1CCCN1C(=O)[C@H](C)NC(=O)CN)C(=O)N[C@H]1CSSC[C@@H]2NC(=O)CNC(=O)[C@@H]3CCCN3C(=O)[C@H]([C@@H](C)O)NC(=O)[C@H](CC(N)=O)NC(=O)[C@@H]3CSSC[C@@H](C(=O)N[C@@H](CO)C(=O)N[C@@H](CCCCN)C(=O)N[C@@H](CC(N)=O)C(=O)O)NC(=O)[C@H](C(C)C)NC(=O)[C@@H]4CCCN4C(=O)[C@H](Cc4c[nH]c5ccccc45)NC(=O)[C@@H]4CCCN4C(=O)[C@H](CC(=O)O)NC(=O)[C@H](CSSC[C@H](NC(=O)[C@H]([C@@H](C)O)NC(=O)[C@H](CCC(=O)O)NC(=O)CNC1=O)C(=O)N[C@@H](Cc1ccccc1)C(=O)NCC(=O)NCC(=O)N[C@@H]([C@@H](C)O)C(=O)N3)NC(=O)[C@H]([C@@H](C)O)NC2=O (H-GAPVCGETCFGGTCNTPGCTCDPWPVCSKN-OH; disulfide 5-19, 9-21, 14-27)",7.61 µM
4,"CC[C@H](C)[C@@H]1NC(=O)[C@@H]2CSSC[C@@H](C(=O)N[C@@H](Cc3ccc(O)cc3)C(=O)N[C@@H](CCCCN)C(=O)N[C@@H](CC(N)=O)C(=O)O)NC(=O)[C@H](C(C)C)NC(=O)[C@H](CCCCN)NC(=O)[C@H](CO)NC(=O)[C@H](CCCCN)NC(=O)[C@@H]3CSSC[C@H](NC(=O)[C@H](CO)NC(=O)[C@H](CCC(=O)O)NC(=O)CNC(=O)[C@@H](NC(=O)[C@@H]4CCCN4C(=O)[C@H](CC(C)C)NC(=O)[C@@H](NC(=O)CN)[C@@H](C)O)CSSC[C@H](NC(=O)CNC(=O)[C@H](C(C)C)NC(=O)[C@H](C(C)C)NC(=O)[C@H](CO)NC(=O)[C@H](CO)NC1=O)C(=O)N[C@@H](CO)C(=O)N3)C(=O)N[C@@H](C(C)C)C(=O)N[C@@H](Cc1c[nH]c3ccccc13)C(=O)N[C@@H]([C@@H](C)CC)C(=O)N1CCC[C@H]1C(=O)N2 (H-GTLPCGESCVWIPCISSVVGCSCKSKVCYKN-OH; disulfide 5-21, 9-23, 14-28)",0.11 µM
